Results taken from patent publication US4272437A, “Antibacterial agents, and 4-thio azetidinone intermediates” (priority 1979, dated 1981).
In brackets after ≈: the same amount, converted by molar mass. Several values for one entry are separate records, joined by “and”; a condition that tells them apart may be missing. Equal values may be shown once.

Assays:
[1] = tested on: Ps. aeruginosa A-9843A; experiment: MIC, tube dilution, Pseudomonas aeruginosa A9843A; format: cell-based; details: Pseudomonas aeruginosa A9843A; overnight 37° C.
Description: (§1) Representative compounds of the present invention were subjected to in vitro antibiotic screening against a variety of microorganisms.

[2] = tested on: Ent. cloacae A-9659; experiment: MIC, tube dilution, Enterobacter cloacae A9659; format: cell-based; details: Enterobacter cloacae A9659; overnight 37° C.
Description: as §1

[3] = tested on: Ent. cloacae A-9656; experiment: MIC, tube dilution, Enterobacter cloacae A9656; format: cell-based; details: Enterobacter cloacae A9656; overnight 37° C.
Description: as §1

[4] = tested on: Pr. vulgaris A-9716; experiment: MIC, tube dilution, Proteus vulgaris / Proteus mirabilis A9716; format: cell-based, Proteus vulgaris (name changed to Proteus mirabilis); details: Proteus vulgaris / Proteus mirabilis A9716; overnight 37° C.
Description: as §1

[5] = tested on: Ser. marcescens A-20019; experiment: MIC, tube dilution, Serratia marcescens A20019; format: cell-based; details: Serratia marcescens A20019; overnight 37° C.
Description: as §1

[6] = tested on: E. coli A-20341-1; experiment: MIC, tube dilution, Escherichia coli A20341-1; format: cell-based; details: overnight 37° C.; for Minimum Inhibitory Concentration (M.I.C.): E. coli A20341-1
Description: as §1

[7] = tested on: Staph. aureus A-9537 and 50% serum; experiment: MIC, tube dilution, Staph. aureus A9537 + 50% serum; format: cell-based, Staphylococcus aureus; details: overnight 37° C.
Description: as §1

[8] = tested on: K. pneumoniae A-15130; experiment: MIC, tube dilution, Klebsiella pneumoniae A15130; format: cell-based; details: K. pneumoniae A15130; overnight 37° C.
Description: as §1

[9] = tested on: Proteus rettgeri A21203; experiment: MIC, tube dilution, Proteus rettgeri A21203; format: cell-based; details: Proteus rettgeri A21203; overnight 37° C.
Description: as §1

[10] = tested on: Str. pyogenes A-9604; experiment: MIC, tube dilution, Streptococcus pyogenes A9604; format: cell-based; details: Str. pyogenes A9604; overnight 37° C., Nutrient Broth
Description: as §1

[11] = stability in aqueous solution followed by UV; format: physicochemical; set-up: unit not given here; details: UV, aqueous solution
Procedure: To a solution of penem 3 (2.4 g, 6.89 mmoles) in tetrahydrofuran-ether-water mixture (1:1:1, 165 ml) was added 30% palladium on diatomaceous earth (4.8 g). The reaction mixture was hydrogenated under 45 p.s.i. at 23° C. for 2.5 h and filtered over celite pad. The filtrate and washings were combined, washed twice with ether, centrifugated and filtered several times to give a clear solution which was lyophilized; 0.622 g, 45%. The crystallization of the compound was induced by the addition of water (0.8 ml); the suspension was centrifuged and the water was removed leaving an orange solid. This solid was washed twice with water and a slightly yellow solid was obtained after drying: […], 19.8%. UV λmax^H.sbsp.2^O : 307 (ε=4318) and 257 (ε=2650). Some crude starting material (1.2 g, 50%) was recovered. The compound (50 mg) can also be purified by column chromatography [Sephadex G10, column size: 1.6×100 cm, flow rate: 10 ml/h, eluent: distilled water, fraction volume: 1.5 ml, detector: refractive index]. UV λmax^H.sbsp.2^O 307 (ε=3597) and 255 (ε=2424).
The stability of the compound in aqueous solution was checked by:
A sample of compound 4 was kept at 23° C. for 3 days and the UV was taken: UV λmax^H.sbsp.2^O : 307 (ε=3055) and 255 (ε=2008).
To a solution of ester 6 (200 mg, 0.5 mmole) in tetrahydrofuran (10 ml) was added ether (10 ml), water (10 ml) and 30% palladium on diatomaceous earth (200 mg). The reaction mixture was hydrogenated in a Parr apparatus under 35 p.s.i. at 25° C. for 2 h 30 min and filtered over a celite pad. The filtrate was washed twice with ether and the aqueous solution was lyophilized, giving a yellow powder which was purified by column chromatography [Sephadex G-10, bed dimensions: 100×1.6 cm, flow rate: 12 ml/h, eluent: distilled water, fraction volume: 1.5 ml detector: refractive index]. The right fractions were combined and lyophilized to give a white powder (10 mg, 8.8%). UV λmax^H.sbsp.2 O 301 (ε=4930), 258 (ε=3290). IR (KBr) cm^-1 :1770 (c=o of β-lactam) and 1580 [drawing 587] The stability of compound 7 in aqueous solution was followed by UV; after 6 h: 301 (4795) and 258 (3105) and after 72 h: 301 (4565) and 258 (3150). […]

[12] = tested on: E. coli A-15119; experiment: MIC, tube dilution, Escherichia coli A15119; format: cell-based; details: E. coli A15119; overnight 37° C.
Description: as §1

[13] = tested on: Staph. aureus A-9537; experiment: MIC, tube dilution, Staphylococcus aureus A9537; format: cell-based; details: Staph. aureus A9537; overnight 37° C., Nutrient Broth
Description: as §1

[14] = tested on: Proteus vulgaris A9555; experiment: MIC, tube dilution, Proteus vulgaris (mirabilis) A9555; format: cell-based; details: overnight 37° C.
Description: as §1

[15] = tested on: Staph. aureus (Meth-Res) A-15097; experiment: MIC, tube dilution, Staphylococcus aureus A15097 (Meth-Res); format: cell-based; details: Staph. aureus A15097 (Meth-Res), overnight 37° C.
Description: as §1

[16] = tested on: Pr. morganii A-15153; experiment: MIC, tube dilution, Proteus morganii A15153; format: cell-based; details: Proteus morganii A15153; overnight 37° C.
Description: as §1

[17] = tested on: Str. faecalis A-20688; experiment: MIC, tube dilution, Streptococcus faecalis A20688; format: cell-based; details: overnight 37° C.; for Minimum Inhibitory Concentration (M.I.C.): Str. faecalis A20688
Description: as §1

[18] = tested on: Ps. aeruginosa A-21213; experiment: MIC, tube dilution, Pseudomonas aeruginosa A21213; format: cell-based; details: overnight 37° C.; for Minimum Inhibitory Concentration (M.I.C.): Pseudomonas aeruginosa A21213
Description: as §1

[19] = tested on: Klebsiella species A20468; experiment: MIC, tube dilution, Klebsiella species A20468; format: cell-based; details: Klebsiella species (K. pneumoniae) A20468, overnight 37° C.
Description: as §1

[20] = tested on: Str. pneumoniae A-9585; experiment: MIC, tube dilution, Streptococcus pneumoniae A9585; format: cell-based; details: Str. pneumoniae A9585; overnight 37° C., Nutrient Broth
Description: as §1

[21] = tested on: Staph. aureus (Pen-Res) A-9606; experiment: MIC, tube dilution, Staphylococcus aureus A9606 (Pen-Res); format: cell-based; details: Staph. aureus A9606 (Pen-Res); overnight 37° C.
Description: as §1

[22] = tested on: Pr. mirabilis A-9900; experiment: MIC, tube dilution, Proteus mirabilis A9900; format: cell-based; details: Proteus mirabilis A9900; overnight 37° C.
Description: as §1

[23] = read-out: Minimum Inhibitory Concentration (M.I.C.)

Row | SMILES | Minimum Inhibitory Concentration (M.I.C.) [1] | Minimum Inhibitory Concentration (M.I.C.) [2] | Minimum Inhibitory Concentration (M.I.C.) [3] | Minimum Inhibitory Concentration (M.I.C.) [5] | Minimum Inhibitory Concentration (M.I.C.) [6] | Minimum Inhibitory Concentration (M.I.C.) [7] | Minimum Inhibitory Concentration (M.I.C.) [8] | Minimum Inhibitory Concentration (M.I.C.) [9] | Minimum Inhibitory Concentration (M.I.C.) [10] | Minimum Inhibitory Concentration (M.I.C.) [12] | Minimum Inhibitory Concentration (M.I.C.) [13] | Minimum Inhibitory Concentration (M.I.C.) [15] | Minimum Inhibitory Concentration (M.I.C.) [16] | Minimum Inhibitory Concentration (M.I.C.) [17] | Minimum Inhibitory Concentration (M.I.C.) [18] | Minimum Inhibitory Concentration (M.I.C.) [19] | Minimum Inhibitory Concentration (M.I.C.) [20] | Minimum Inhibitory Concentration (M.I.C.) [21] | Minimum Inhibitory Concentration (M.I.C.) [22] | other results
1 | NCCCC1=C(C(=O)O)N2C(=O)CC2S1 (centres unmarked) [Example 51, 2-(γ-Aminopropyl)penem-3-carboxylic Acid] | 125 µg/mL and 63 µg/mL | 16 µg/mL | 32 µg/mL | 32 µg/mL and 16 µg/mL | 125 µg/mL | 63 µg/mL and > 32 µg/mL | 32 µg/mL | 16 µg/mL and 8 µg/mL | 2 µg/mL and 1 µg/mL | 16 µg/mL and 8 µg/mL | 2 µg/mL and 1 µg/mL | 125 µg/mL | 32 µg/mL and 16 µg/mL | 125 µg/mL | 125 µg/mL | > 125 µg/mL | .25 µg/mL | 63 µg/mL and 32 µg/mL | 16 µg/mL and 8 µg/mL | Minimum Inhibitory Concentration (M.I.C.) [4]: 16 µg/mL; MIC ([6]; Escherichia coli, A203411, E. coli A20341-1, read-out: Minimum Inhibitory Concentration (M.I.C.)): > 63 µg/mL; ε at 258 in aqueous solution (stability) ([11]; after 6 h): 3105; ε at 301 in aqueous solution (stability) ([11]; after 6 h): 4795; ε at 258 in aqueous solution (stability) ([11]; after 72 h): 3150; ε at 301 in aqueous solution (stability) ([11]; after 72 h): 4565; MIC [14, 23]: 63 µg/mL (≈ 276 µM); MIC ([15]; Staphylococcus aureus, read-out: Minimum Inhibitory Concentration (M.I.C.)): 63 µg/mL (≈ 276 µM); MIC ([17]; Enterococcus faecalis, A20688, Str. faecalis A20688, read-out: Minimum Inhibitory Concentration (M.I.C.)): 63 µg/mL (≈ 276 µM); MIC ([18]; Pseudomonas aeruginosa, A21213, Pseudomonas aeruginosa A21213, read-out: Minimum Inhibitory Concentration (M.I.C.)): 63 µg/mL (≈ 276 µM); MIC [19, 23]: > 63 µg/mL
2 | COP(=O)(CCC1=C(C(=O)O)N2C(=O)CC2S1)OC (centres unmarked) [Example 57] | 125 µg/mL | 125 µg/mL | 63 µg/mL | 63 µg/mL | > 125 µg/mL | 16 µg/mL | 125 µg/mL | 16 µg/mL | .13 µg/mL | 16 µg/mL | 1 µg/mL | > 125 µg/mL | 32 µg/mL | 125 µg/mL | 125 µg/mL | > 125 µg/mL | .06 µg/mL | 125 µg/mL | 8 µg/mL | Minimum Inhibitory Concentration (M.I.C.) [14]: 63 µg/mL
